Measured values from EPA's ToxValDB 9.5 (doi:10.2903/j.efsa.2010.1779).
≈ marks a conversion by molar mass, not a printed value.

Legend:
[1] = system: Rattus norvegicus
[2] = system: Colinus virginianus
[3] = system: Neomysis kadiakensis; details: acute; duration: 96 hours; mortality
[4] = system: Anas platyrhynchos
[5] = system: Oncorhynchus mykiss
[6] = system: Oryctolagus sp.; details: developmental; development
[7] = system: Bibionidae; details: chronic/long-term
[8] = system: Mus musculus; details: chronic; duration: 18 months; histopathology: neoplastic
[9] = system: Daphnia magna
[10] = system: Tagia sp.; details: acute; duration: 14 days; mortality
[11] = system: Apis mellifera; details: acute; duration: 48 hours; oral; unspecified; mortality
[12] = system: Typhlodromus pyri; assay: LR50; higher = less toxic; details: acute; duration: 14 days; mortality
[13] = system: Adalia sp.; assay: LR50; higher = less toxic; details: not reported; mortality

CCOC(=O)NCCOc1ccc(Oc2ccccc2)cc1 [Fenoxycarb]
LD50 ([1]; acute, oral, mortality): > 10000 mg/kg-day
NOAEC ([1]; chronic): 40 mg/kg-day
NOAEL ([1]; subchronic, duration: 13 weeks, oral, organ weight): 9.7 mg/kg-day
LC50 ([2]; acute, oral, diet, mortality): 1360 mg/kg-day
LD50 ([2]; acute, oral, mortality): > 7000 mg/kg-day
NOEC ([2]; reproduction developmental): 35.9 mg/kg-day
LC50 [3]: 0.35 µg/mL (≈ 1.16 µM)
LD50 ([4]; acute, oral, unspecified, mortality): > 3000 mg/kg-day
NOEC ([4]; reproductive): 17.7 mg/kg-day
LC50 ([4]; short-term, oral, feed, mortality): > 5880 mg/kg-day
LC50 ([5]; acute, duration: 96 hours, mortality): 0.66 µg/mL (≈ 2.19 µM)
NOEC ([5]; chronic/long-term, duration: 60 days, body weight): 0.048 mg/L
NOAEL [6]: 200 mg/kg-day
NOEC [7]: 0.0028 mg/kg
NOEC ([7]; duration: 28 days): 0.00075 mg/L
LOAEL [8]: 5.3 mg/kg-day
LC50 ([9]; acute, duration: 48 hours, mortality): 0.5 µg/mL (≈ 1.66 µM)
NOEC ([9]; chronic/long-term, duration: 21 days, reproduction): 1.6e-06 mg/L
LC50 [10]: > 850 mg/kg
LD50 [11]: > 204 µg/piece
LR50 [12]: > 463 g/ha
LR50 [13]: > 2.5 g/ha
